{"source": "patent US20090076136A1", "about": "“THERAPEUTIC AGENT” (priority 2003, published 2009)", "key": {"[1]": {"test_system": "mature adipocytes (3T3-L1 cells)", "test": "Enhancing action on glucose uptake: 2-deoxyglucose uptake into mature adipocytes", "assay_type": "cell-based", "protocol": "The induction of differentiation into mature adipocytes was carried out by partially modifying the method of Rubin C. S. et al. (JBC. 253 7570-7578, 1978). 3T3-L1 cells (ATCC CCL-92.1) were suspended in a 10% calf serum (manufactured by ICN)-containing Dulbecco's modified Eagle's medium (manufactured by Sigma, D6046) containing 200 μM ascorbic acid so as to have a density of 4×10^3 cells/mL, and the suspension was put in each well of a 12-well microtiter plate in an amount of 2 mL per well. The cells were cultured at 37° C. for 7 days in the presence of 5% carbon dioxide gas. On the seventh day, the medium was exchanged with […] of a 10% fetal bovine serum (manufactured by GIBCO)-containing Dulbecco's modified Eagle's medium containing 200 μM ascorbic acid, 0.25 μM dexamethasone, 10 μg/mL insulin (manufactured by TAKARA BIO INC.) and 0.5 mM 3-isobutyl-1-methylxanthine (manufactured by Nacalai Tesque, Inc., 19624-86). After 45 hours, the medium was exchanged with 2 mL of a 10% fetal bovine serum-containing Dulbecco's modified Eagle's medium containing 200 μM ascorbic acid and 5 μg/mL insulin. The medium was exchanged on after 2 days and 5 days, and the cells were cultured for 7 days, to give mature adipocytes.\nAs the evaluation of enhancing action on glucose uptake, and also as the evaluation of insulin-mimetic action, the amount of 2-deoxyglucose uptake into mature adipocytes stimulated with the sample in the adipocytes was determined.\nAfter the termination of the culture, the medium was removed, and the cells were washed twice with a 0.1% (w/v) bovine serum albumin (manufactured by Sigma, A8022)-containing Dulbecco's modified Eagle's medium. Thereafter, 1 mL of the same medium was put to each well. The cells were cultured overnight at 37° C. in the presence of 5% carbon dioxide gas. After the overnight culture, the cells were washed twice with a HEPES buffered saline (140 mM NaCl, 5 mM KCl, 2.5 mM MgSO4, 1 mM CaCl2, 20 mM HEPES-Na (pH 7.4)), and 0.9 mL of the same buffer was added thereto. The cells were cultured at 37° C. for 75 minutes. […] […] Thereafter, 100 μL of a HEPES buffered saline containing 2-deoxy-[1,2-^3H(N)]-glucose (manufactured by PerkinElmer Life Sciences Inc., NET549A) and 1 mM 2-deoxyglucose (manufactured by Nacalai Tesque, Inc., 10722-11) was added thereto at a final concentration of 0.5 μCi/mL, and the cells were further cultured at 37° C. for 10 minutes. After the termination of the culture, the supernatant was removed, the cells were washed three times with a phosphate buffer cooled to 4° C., and 0.5 mL of a 1% Nonidet P-40-containing phosphate buffer was added to lyse the cells, whereby 2-deoxy-[1,2-^3H(N)]-glucose taken into the cells was eluted. The radioactivity was determined with a liquid scintillation counter LS6500 (manufactured by Beckmann) using 25 μL of the supernatant with Ultima Gold (manufactured by PerkinElmer Life Sciences Inc., 6013329) as a scintillation cocktail."}, "[2]": {"test_system": "mouse", "test": "Single-dose oral toxicity in mouse", "assay_type": "in vivo", "settings": "1 g/kg weight", "protocol": "No toxicity is found even when the above-mentioned effective ingredient used in the present invention is administered in an effective dose for the exhibition of its action."}, "[3]": {"test_system": "3T3-L1 cells", "test": "Inducing action on differentiation into adipocytes: amount of triglyceride in the adipocytes", "assay_type": "cell-based", "protocol": "Induction of differentiation into adipocytes was carried out by partially modifying the above-mentioned method of Rubin C. S. et al. In addition, as a compound (P001), a compound prepared in Example 4 was used. 3T3-L1 cells were suspended in a 10% (w/v) calf serum-containing Dulbecco's modified Eagle's medium containing 200 μM ascorbic acid so as to have a density of 4×10^3 cells/mL, and the suspension was put in each well of a 12-well microtiter plate in an amount of 2 mL per well. The cells were cultured at 37° C. for 7 days in the presence of 5% carbon dioxide gas. On the seventh day, the medium was exchanged with a 10% fetal bovine serum-containing Dulbecco's modified Eagle's medium containing 200 μM ascorbic acid and 0.25 μM dexamethasone, and 4 μL of a 15 mM dimethyl sulfoxide solution of the compound (P001), a 5 mM dimethyl sulfoxide solution of the compound (P001), or a 1.5 mM dimethyl sulfoxide solution of the compound (P001) was added to each well. Here, there were set a group with addition of 4 μL of a 5 mg/mL aqueous solution of insulin as a positive control, and a group with addition of dimethyl sulfoxide as a negative control. After 48 hours, the medium was exchanged with a 10% fetal bovine serum-containing Dulbecco's modified Eagle's medium containing 200 μM ascorbic acid, and 4 μL of a 15 mM dimethyl sulfoxide solution of the compound (P001), a 5 mM dimethyl sulfoxide solution of the compound (P001), or a 1.5 mM dimethyl sulfoxide solution of the compound (P001), a group with addition of 2 μL of a 5 mg/mL aqueous solution of insulin as a positive control, or a group with addition of dimethyl sulfoxide as a negative control was put to each well. The cells were cultured for additional 7 days. Here, the medium was exchanged after 2 days and after 5 days, and at that time, 4 μL of a 15 mM dimethyl sulfoxide solution of the compound (P001), a 5 mM dimethyl sulfoxide solution of the compound (P001), or a 1.5 mM dimethyl sulfoxide solution of the compound (P001), a group with addition of 2 μL of a 5 mg/mL aqueous solution of insulin as a positive control, or a group with addition of dimethyl sulfoxide as a negative control was put to each well. […]\nThe amount of triglyceride in the adipocytes was determined as an index for inducing differentiation into mature adipocytes, and also as the evaluation of insulin-mimetic action.\nAfter the termination of the culture, the medium was removed, and the cells were washed twice with a phosphate buffered saline. One milliliter of a solvent of hexane:isopropanol=3:2 was added to the cells. The mixture was allowed to stand at room temperature for 30 minutes, and thereafter the supernatant was collected. The procedures were repeated again, and 2 mL of the supernatant was concentrated to dryness. The precipitates were dissolved in 100 μL of isopropanol, and the amount of triglyceride contained in 10 μL of the solution was determined using a triglyceride E-test (manufactured by Wako Pure Chemical Industries, Ltd., code 432-40201). In addition, all the determinations were carried out twice."}, "[4]": {"test_system": "glucose transporter (mature adipocytes)", "test": "Influence of cytochalasin B on 2-deoxyglucose uptake in mature adipocytes", "assay_type": "cell-based", "settings": "cytochalasin B 40 μM, in every group (polygodial 3 μM, insulin 1 μg/mL, negative control)", "protocol": "Specifically, as a sample, there was set a group with addition of a dimethyl sulfoxide solution of polygodial so as to have a final concentration of 3 μM. […] Furthermore, in each group, there was set a group with addition of cytochalasin B (manufactured by Nacalai Tesque, Inc., 10435-81) so as to have a final concentration 40 μM at the same time as the time of addition of the sample and insulin. Thereafter, the amount of 2-deoxy-[1,2-^3H(N)]-glucose taken into the adipocytes was determined in the same manner."}, "[5]": {"settings": "final concentration 10 μM, 3 μM or 1 μM, FIG. 2, FIG. 3"}, "[6]": {"settings": "final concentration 30 μM, 10 μM or 3 μM"}}}
{"compound": "O=Cc1cc2ccccc2cc1C=O", "note": "[naphthalene-2,3-dicarboxyaldehyde]", "values": [{"measurement": "2-deoxy-[1,2-3H(N)]-glucose uptake compared to the negative control", "setting": "[1]; [5]", "value": "enhancement of 2-deoxy-[1,2-^3H(N)]-glucose uptake was found"}, {"measurement": "deaths after oral administration", "setting": "[2]", "value": "no cases of deaths are found"}]}
{"compound": "CC1(C)CCCC2(C)C1=CCC1=C2C(=O)OC1", "note": "(stereo not shown) [P003, 4,6,7,8,9,9a-hexahydro-6,6,9a-trimethyl-naphtho[1,2-c]furan-1(3H)-one]", "values": [{"measurement": "2-deoxy-[1,2-3H(N)]-glucose uptake compared to the negative control", "setting": "[1]; final concentration 30 μM or 10 μM, sample added at each exchange of BSA medium or HEPES buffered saline, FIG. 23", "value": "enhancement of 2-deoxy-[1,2-^3H(N)]-glucose uptake was found"}, {"measurement": "biosynthesis of triglyceride (index of differentiation into mature adipocytes)", "setting": "[3]; [6]", "value": "induction of biosynthesis of triglyceride was found"}, {"measurement": "deaths after oral administration", "setting": "[2]", "value": "no cases of deaths are found"}]}
{"compound": "CC1(C)CCCC2(C)C(CO)C(CO)=CCC12", "note": "(stereo not shown) [P005, 1,4,4a,5,6,7,8,8a-octahydro-5,5,8a-trimethyl-1,2-naphthalenedimethanol]", "values": [{"measurement": "biosynthesis of triglyceride (index of differentiation into mature adipocytes)", "setting": "[3]; final concentration 30 μM or 10 μM, FIG. 14", "value": "induction of biosynthesis of triglyceride was found"}, {"measurement": "deaths after oral administration", "setting": "[2]", "value": "no cases of deaths are found"}]}
{"compound": "CC1(C)CCCC2(C)C1=CCC(CO)=C2CO", "note": "(stereo not shown) [P002, 3,5,6,7,8,8a-hexahydro-5,5,8a-trimethyl-1,2-naphthalenedimethanol]", "values": [{"measurement": "biosynthesis of triglyceride (index of differentiation into mature adipocytes)", "setting": "[3]; final concentration 30 μM or 3 μM, FIG. 7", "value": "induction of biosynthesis of triglyceride was found"}, {"measurement": "deaths after oral administration", "setting": "[2]", "value": "no cases of deaths are found"}]}
{"compound": "C=C1[C@@H](C)[C@H]2[C@H](Cc3ccccc3)NC(=O)[C@]23OC(=O)/C=C/[C@H](O)CCC[C@@H](C)C/C=C/[C@H]3[C@@H]1O", "note": "[cytochalasin B, reference compound]", "values": [{"measurement": "2-deoxy-[1,2-3H(N)]-glucose uptake on addition of cytochalasin B", "setting": "[4]", "value": "almost completely inhibited"}]}
{"compound": "CC(=O)OCC1=CCC2C(C)(C)CCCC2(C)C1C=O", "note": "(stereo not shown) [P007, 1-[(acetyloxy)methyl]-1,4,4a,5,6,7,8,8a-octahydro-5,5,8a-trimethyl-2-naphthalenecarboxyaldehyde]", "values": [{"measurement": "biosynthesis of triglyceride (index of differentiation into mature adipocytes)", "setting": "[3]; [6]", "value": "induction of biosynthesis of triglyceride was found"}, {"measurement": "deaths after oral administration", "setting": "[2]", "value": "no cases of deaths are found"}]}
{"compound": "CC(=O)O[C@@H]1C[C@@H]2[C@@]3(C)CCCC(C)(C)[C@@H]3CC[C@@]2(C)[C@@H]2CC=C(C=O)[C@H](C=O)[C@@]12C", "note": "[12-epi-scalaradial]", "values": [{"measurement": "2-deoxy-[1,2-3H(N)]-glucose uptake compared to the negative control", "setting": "[1]; [5]", "value": "enhancement of 2-deoxy-[1,2-^3H(N)]-glucose uptake was found"}, {"measurement": "deaths after oral administration", "setting": "[2]", "value": "no cases of deaths are found"}]}
{"compound": "CC1(C)CCC[C@]2(C)[C@H](C=O)C(C=O)=CC[C@@H]12", "note": "[epipolygodial]", "values": [{"measurement": "2-deoxy-[1,2-3H(N)]-glucose uptake compared to the negative control", "setting": "[1]; final concentration 3 μM, 1 μM or 0.3 μM, FIG. 25", "value": "enhancement of 2-deoxy-[1,2-^3H(N)]-glucose uptake was found"}, {"measurement": "deaths after oral administration", "setting": "[2]", "value": "no cases of deaths are found"}]}
{"compound": "CC1(C)CCCC2(C)C1CCC1(CO1)C2C/C=C(/C=O)CC=O", "note": "(stereo not shown) [miogadial]", "values": [{"measurement": "deaths after oral administration", "setting": "[2]", "value": "no cases of deaths are found"}]}
{"compound": "COC(=O)C1=C(C(=O)OC)C2(C)CCCC(C)(C)C2=CC1", "note": "(stereo not shown) [P001, dimethyl 3,5,6,7,8,8a-hexahydro-5,5,8a-trimethyl-1,2-naphthalenedicarboxylate]", "values": [{"measurement": "biosynthesis of triglyceride (index of differentiation into mature adipocytes)", "setting": "[3]; [6]", "value": "induction of biosynthesis of triglyceride was found"}, {"measurement": "deaths after oral administration", "setting": "[2]", "value": "no cases of deaths are found"}]}
{"compound": "COC(=O)C1=CCC2C(C)(C)CCCC2(C)C1C(=O)OC", "note": "(stereo not shown) [P004, dimethyl 1,4,4a,5,6,7,8,8a-octahydro-5,5,8a-trimethyl-1,2-naphthalenedicarboxylate]", "values": [{"measurement": "2-deoxy-[1,2-3H(N)]-glucose uptake compared to the negative control", "setting": "[1]; final concentration 30 μM, 10 μM or 3 μM, FIG. 11", "value": "enhancement of 2-deoxy-[1,2-H(N)]-glucose uptake was found"}, {"measurement": "biosynthesis of triglyceride (index of differentiation into mature adipocytes)", "setting": "[3]; final concentration 10 μM, 3 μM or 1 μM, FIG. 12", "value": "induction of biosynthesis of triglyceride was found"}, {"measurement": "deaths after oral administration", "setting": "[2]", "value": "no cases of deaths are found"}]}
{"compound": "CC1(C)CCCC2(C)C3COC(=O)C3=CCC12", "note": "(stereo not shown) [P006, 5,5a,6,7,8,9,9a,9b-octahydro-6,6,9a-trimethyl-naphtho[1,2-c]furan-3(1H)-one]", "values": [{"measurement": "biosynthesis of triglyceride (index of differentiation into mature adipocytes)", "setting": "[3]; [6]", "value": "induction of biosynthesis of triglyceride was found"}, {"measurement": "deaths after oral administration", "setting": "[2]", "value": "no cases of deaths are found"}]}
{"compound": "CC1(C)C[C@H]2C=C(C=O)[C@]3(C=O)C[C@]3(C)[C@H]2C1", "note": "[isovelleral]", "values": [{"measurement": "2-deoxy-[1,2-3H(N)]-glucose uptake compared to the negative control", "setting": "[1]; final concentration 3 μM or 1 μM, FIG. 24", "value": "enhancement of 2-deoxy-[1,2-^3H(N)]-glucose uptake was found"}, {"measurement": "deaths after oral administration", "setting": "[2]", "value": "no cases of deaths are found"}]}
{"compound": "CC(=O)OCC1=CCC2C(C)(C)CCCC2(C)C1C=O", "note": "(stereo not shown) [P008, 2-[(acetyloxy)methyl]-1,4,4a,5,6,7,8,8a-octahydro-5,5,8a-trimethyl-1-naphthalenecarboxyaldehyde]", "values": [{"measurement": "biosynthesis of triglyceride (index of differentiation into mature adipocytes)", "setting": "[3]; final concentration 10 μM or 3 μM, FIG. 20", "value": "induction of biosynthesis of triglyceride was found"}, {"measurement": "deaths after oral administration", "setting": "[2]", "value": "no cases of deaths are found"}]}
